Columns and labels:
[1] = Cytotoxicity against human HOG.R5 cells; assay type: cell-based
KB = test: Cytotoxicity against human KB cells; assay type: functional, cell-based
HUVEC = test: Cytotoxicity against HUVEC; assay type: cell-based; conditions: Homo sapiens
LNCaP = test: Cytotoxicity against human LNCAP cells; assay type: functional, cell-based
Lu1 = test: Cytotoxicity against human Lu1 cells; assay type: functional, cell-based
Col2 = test: Cytotoxicity against human Col2 cells; assay type: functional, cell-based
[2] = tested on: Human immunodeficiency virus 1; test: Antiviral activity against HIV1 3B infected in human HOG.R5 cells after 4 days; assay type: functional, organism-based; conditions: Human immunodeficiency virus 1, 3B, HOG.R5, 96 h

## COc1cc(C#C/C=C/COc2ccc(O)cc2)ccc1O
[1]
  CC50: < 17 µM
KB
  IC50: 40.5 µM
HUVEC
  IC50: > 20 µg/mL
LNCaP
  IC50: > 20 µg/mL
Lu1
  IC50: 66.5 µM
Col2
  IC50: > 20 µg/mL

## C=CC(/C=C\c1ccc(O)cc1)c1ccc(OC)c(O)c1 (stereo not given)
[1]
  CC50: 12 µM
KB
  IC50: 31.9 µM
HUVEC
  IC50: 58.1 µM
LNCaP
  IC50: 41.1 µM
Lu1
  IC50: 25.5 µM
Col2
  IC50: 41.4 µM

## C=CC(CC(=O)c1ccc(O)cc1)c1ccc(O)cc1 (stereo not given)
[1]
  CC50: 76.8 µM
KB
  IC50: > 20 µg/mL
HUVEC
  IC50: > 20 µg/mL
LNCaP
  IC50: > 20 µg/mL
[2]
  IC50: 74.6 µM
Lu1
  IC50: > 20 µg/mL
Col2
  IC50: > 20 µg/mL

## C=CC(/C=C\c1ccc(O)cc1)c1ccc(O)c(OC)c1 (stereo not given)
[1]
  CC50: 24.1 µM
KB
  IC50: 31.9 µM
HUVEC
  IC50: 23.7 µM
LNCaP
  IC50: 23.4 µM
Lu1
  IC50: 15.9 µM
Col2
  IC50: 22.3 µM

## C[C@H]1CC[C@@]2(OC1)O[C@H]1C[C@H]3[C@@H]4CC[C@@H]5C[C@@H](O[C@@H]6O[C@H](CO[C@@H]7OC[C@H](O)[C@H](O)[C@H]7O)[C@@H](O[C@@H]7OC[C@H](O)[C@H](O)[C@H]7O)[C@H](O)[C@H]6O[C@@H]6O[C@H](CO)[C@@H](O)[C@H](O)[C@H]6O)CC[C@]5(C)[C@H]4CC[C@]3(C)[C@H]1[C@@H]2C [ASPARACOSIDE]
[1]
  CC50: < 10 µM
KB
  IC50: 4.8 µM
HUVEC
  IC50: 4.1 µM
LNCaP
  IC50: 10.1 µM
Lu1
  IC50: 4.2 µM
Col2
  IC50: 5.4 µM

## C[C@@H]1CC[C@@]2(OC1)O[C@H]1C[C@H]3[C@@H]4CCC5=CC(=O)CC[C@]5(C)[C@H]4C[C@@H](O)[C@]3(C)[C@@]1(O)[C@@H]2C [ASPARACOSIN A]
KB
  IC50: 24.1 µM
HUVEC
  IC50: > 20 µg/mL
LNCaP
  IC50: > 20 µg/mL
Lu1
  IC50: > 20 µg/mL
Col2
  IC50: > 20 µg/mL

## COC1(OC)CC[C@@]2(C)[C@H](CC[C@@H]3[C@@H]2CC(=O)[C@@]2(C)[C@H]3C[C@@H]3O[C@]4(CC[C@@H](C)CO4)[C@@H](C)[C@@]32O)C1 [ASPARACOSIN B]
KB
  IC50: > 20 µg/mL
HUVEC
  IC50: > 20 µg/mL
LNCaP
  IC50: > 20 µg/mL
Lu1
  IC50: > 20 µg/mL
Col2
  IC50: > 20 µg/mL

## Oc1ccc(C#C/C=C/COc2ccc(O)cc2)cc1 [ASPARENYDIOL]
[1]
  CC50: < 18 µM
KB
  IC50: 8.5 µM
HUVEC
  IC50: > 20 µg/mL
LNCaP
  IC50: > 20 µg/mL
Lu1
  IC50: 70.1 µM
Col2
  IC50: > 20 µg/mL

## COc1cc(/C=C/CO)ccc1O [CONIFERYL ALCOHOL]
KB
  IC50: > 20 µg/mL
HUVEC
  IC50: > 20 µg/mL
LNCaP
  IC50: > 20 µg/mL
Lu1
  IC50: > 20 µg/mL
Col2
  IC50: > 20 µg/mL

## Cc1c2ccncc2c(C)c2c1[nH]c1ccccc12 [ELLIPTECINE]
[1]
  CC50: 0.08 µM
KB
  IC50: 0.16 µM
HUVEC
  IC50: 0.37 µM
LNCaP
  IC50: 3.25 µM
Lu1
  IC50: 0.08 µM
Col2
  IC50: 1.22 µM

## C=C[C@H](/C=C\c1ccc(O)cc1)c1ccc(O)cc1 [NYASOL]
[1]
  CC50: 58.1 µM
KB
  IC50: > 20 µg/mL
HUVEC
  IC50: > 20 µg/mL
LNCaP
  IC50: > 20 µg/mL
[2]
  IC50: 46.4 µM
Lu1
  IC50: > 20 µg/mL
Col2
  IC50: > 20 µg/mL

— ChEMBL document CHEMBL1146477, “Bioactive constituents from Asparagus cochinchinensis” (J Nat Prod, 2004)
